Experimental data from patent US20080064718A1, “INHIBITORS OF PROTEIN TYROSINE KINASE ACTIVITY” (priority 2006, published 2008).
Read-outs that look alike come from different tables or passages of the source.

Experiments:
VEGF receptor KDR = target: T1, VEGF receptor KDR (Homo sapiens, UniProt P35968); experiment: In vitro receptor tyrosine kinase assay, VEGF receptor KDR (DELFIA); assay type: biochemical; details: GST-VEGFR2 806-1356, ATP 0.6 uM
T1 construct: made in house; host or cells: Sf9 cells (Spodoptera frugiperda), recombinant baculovirus
T1 sequence (P35968 806-1356): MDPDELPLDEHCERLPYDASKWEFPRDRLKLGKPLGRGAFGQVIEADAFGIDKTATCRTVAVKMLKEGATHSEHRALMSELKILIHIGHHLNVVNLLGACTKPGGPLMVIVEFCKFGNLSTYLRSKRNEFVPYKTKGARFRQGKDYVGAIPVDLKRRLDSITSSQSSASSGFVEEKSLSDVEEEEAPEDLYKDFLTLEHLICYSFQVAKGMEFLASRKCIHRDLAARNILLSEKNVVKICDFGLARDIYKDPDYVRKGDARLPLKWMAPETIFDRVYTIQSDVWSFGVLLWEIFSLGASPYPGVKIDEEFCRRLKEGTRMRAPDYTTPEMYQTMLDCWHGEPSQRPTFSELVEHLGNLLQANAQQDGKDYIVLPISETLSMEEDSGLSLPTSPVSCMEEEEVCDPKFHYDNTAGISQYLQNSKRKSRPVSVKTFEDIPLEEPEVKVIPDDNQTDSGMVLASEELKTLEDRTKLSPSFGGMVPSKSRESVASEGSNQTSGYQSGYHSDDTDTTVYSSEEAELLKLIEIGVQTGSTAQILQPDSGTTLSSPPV
Excerpt: In the case of VEGF receptor KDR a 1.6-kb cDNA corresponding to the catalytic domain of VEGFR2 or KDR (Genbank accession number AF035121 amino acid 806 to 1356) is cloned into the Pst I site of the pDEST20 Gateway vector (Invitrogen) for the production of a GST-tagged version of that enzyme.
The GST-VEGFR2806-1356 protein is expressed in Sf9 cells (Spodoptera frugiperda) upon infection with recombinant baculovirus construct.
The supernatant is loaded onto a GST-agarose column (Sigma) equilibrated with PBS pH 7.3. Following a four column volume (CV) wash with PBS pH 7.3+1% Triton X-100 and 4 CV wash with buffer B (50 mM Tris pH 8.0, 20% glycerol and 100 mM NaCl), bound proteins are step eluted with 5 CV of buffer B supplemented with 5 mM DTT and 15 mM glutathion. […] Final GST-VEGFR2806-1356 protein preparations concentrations are about 0.7 mg/ml with purity approximating 70%.

A549 = A549 inhibition of wound healing; assay type: cell-based; details: read-out: A549 INHIB WND ING IC50 UM
DU145 = DU145 scattering; assay type: cell-based; details: DU145 cells, read-out: CMET DU145 SCATT HEAL- IC50 UM
c-Met = target: T2, c-Met (Homo sapiens, UniProt P08581); experiment: c-Met phosphorylation direct ELISA in MKN45 cells; assay type: cell-based; details: 3 h treatment
T2 construct: endogenous in cells; host or cells: MKN45 gastric carcinoma cells
T2 sequence (P08581 25-1390): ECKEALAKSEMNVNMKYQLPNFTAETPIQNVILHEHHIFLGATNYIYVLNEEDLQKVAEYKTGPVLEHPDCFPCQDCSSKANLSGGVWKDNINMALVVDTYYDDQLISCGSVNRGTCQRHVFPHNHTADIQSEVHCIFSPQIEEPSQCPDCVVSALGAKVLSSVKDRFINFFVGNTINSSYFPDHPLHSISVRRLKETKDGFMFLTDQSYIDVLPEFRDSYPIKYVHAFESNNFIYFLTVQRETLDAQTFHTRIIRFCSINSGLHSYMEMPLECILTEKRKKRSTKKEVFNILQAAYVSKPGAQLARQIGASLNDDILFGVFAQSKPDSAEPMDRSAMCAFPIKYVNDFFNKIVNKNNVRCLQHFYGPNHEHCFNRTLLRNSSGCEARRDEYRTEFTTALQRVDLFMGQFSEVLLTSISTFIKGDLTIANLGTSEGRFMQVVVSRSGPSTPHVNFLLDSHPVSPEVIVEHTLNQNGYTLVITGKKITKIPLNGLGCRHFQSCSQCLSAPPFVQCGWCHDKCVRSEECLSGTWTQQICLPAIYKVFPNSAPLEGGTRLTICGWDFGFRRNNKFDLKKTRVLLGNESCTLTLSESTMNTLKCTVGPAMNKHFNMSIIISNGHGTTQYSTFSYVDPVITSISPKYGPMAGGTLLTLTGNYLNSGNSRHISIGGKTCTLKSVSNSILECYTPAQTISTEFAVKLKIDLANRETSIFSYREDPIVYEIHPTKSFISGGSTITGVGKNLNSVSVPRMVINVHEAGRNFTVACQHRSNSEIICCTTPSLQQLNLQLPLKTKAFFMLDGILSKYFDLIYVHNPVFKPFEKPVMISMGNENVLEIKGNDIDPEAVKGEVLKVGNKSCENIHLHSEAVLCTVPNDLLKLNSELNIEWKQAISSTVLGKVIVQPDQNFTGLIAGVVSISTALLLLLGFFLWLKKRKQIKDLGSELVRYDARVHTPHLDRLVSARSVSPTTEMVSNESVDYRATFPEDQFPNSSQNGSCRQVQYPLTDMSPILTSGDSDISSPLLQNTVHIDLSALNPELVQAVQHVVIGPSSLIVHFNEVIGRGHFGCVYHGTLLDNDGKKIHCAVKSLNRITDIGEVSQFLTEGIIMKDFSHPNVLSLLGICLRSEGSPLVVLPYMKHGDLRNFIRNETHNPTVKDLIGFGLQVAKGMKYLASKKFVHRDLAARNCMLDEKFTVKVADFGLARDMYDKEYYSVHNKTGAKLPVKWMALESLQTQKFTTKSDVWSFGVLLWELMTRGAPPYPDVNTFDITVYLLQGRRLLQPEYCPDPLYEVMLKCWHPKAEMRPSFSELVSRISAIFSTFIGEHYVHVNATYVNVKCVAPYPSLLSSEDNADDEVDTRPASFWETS
Description: Alternatively, the following assay is used to determine inhibition of c-Met phosphorylation.
The c-Met receptor is expressed in numerous cancer cell lines derived from tumors of epithelial origin. In MKN45 gastric carcinoma cells the c-Met gene is amplified, resulting in several-fold overexpression of the receptor and its constitutive activation.
Cell treatments: MKN45 cells are seeded into wells of 96-well plates at a density of 3×10^4 cells/well in RPMI medium supplemented with 10% FBS. […] Inhibitors are added to the medium in triplicate wells at the indicated doses.
After an overnight protein binding incubation at 4° C., lysates are aspirated and wells are blocked for 1 h at 37° C. in TBST supplemented with 5% BSA. Plates are incubated with the primary antibodies anti-phospho-Tyrosine (Millipore, 4G10) diluted 1/15000 in TBST supplemented with 5% BSA for 1 h at room temperature. Plates are washed 3 times on a plate washer (SkanWasher, Molecular Devises), and incubated with the reporter antibody […] (Sigma) diluted 1/15000 in TBST supplemented with 5% BSA, for 1 h at room temperature. Plates are washed 3 times with TBST using on a plate washer and subsequently incubated with chemiluminescent substrate solution (ECL, Roche). Luminescence signal is captured on a Polar Star Optima apparatus (BMG LabTech).
Average values of the triplicate samples are used to prepare IC50 curves using a 4-parameter fit model. These curves are calculated using, for example, GraFit 5.0 software. For assay standardization purpose, an internal control is included on each experimental test plate.

[1] = target: recombinant human c-Met/HGF receptor (Homo sapiens, UniProt P08581); experiment: In vitro receptor tyrosine kinase assay, c-Met/HGF receptor (DELFIA)
recombinant human c-Met/HGF receptor, sequence (P08581 1078-1337): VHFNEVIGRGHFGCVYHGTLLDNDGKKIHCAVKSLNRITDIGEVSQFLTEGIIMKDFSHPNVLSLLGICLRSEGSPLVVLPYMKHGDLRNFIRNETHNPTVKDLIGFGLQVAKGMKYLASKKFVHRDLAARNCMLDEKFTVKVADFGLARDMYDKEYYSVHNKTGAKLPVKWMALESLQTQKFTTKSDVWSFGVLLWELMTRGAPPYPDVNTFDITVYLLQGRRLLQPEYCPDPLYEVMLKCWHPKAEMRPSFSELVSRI

SMILES	IC50 (VEGF receptor KDR; read-out: VEGFR IC50) [µM]	IC50 (A549; Homo sapiens, A549 cells) [µM]	IC50 (DU145; Homo sapiens, DU-145) [µM]	IC50 (c-Met) [µM]	IC50 [1] [µM]	IC50 (VEGF receptor KDR; read-out: VEGFR (IC50)) [µM]	IC50 (A549; Homo sapiens, A549, A549 cells) [µM]	IC50 (A549; A549 cells) [µM]	IC50 (DU145) [µM]
O=C(Nc1ccc(Oc2ccnc3cc(-c4cccc[n+]4[O-])sc23)c(F)c1)N1CCN(c2ccc(F)cc2)C1=O	< 0.25	< 0.25	< 0.25	< 0.25	< 0.25	–	–	–	–
CS(=O)(=O)CCNCc1ccc(-c2cc3nccc(Oc4ccc(NC(=O)N5CCN(c6ccccc6)C5=O)cc4F)c3s2)cc1	< 0.25	> 1	0.25 to 0.5	< 0.25	< 0.25	–	–	–	–
O=C(Nc1ccc(Oc2ccnc3cc(-c4ccc(CNC5CC5)cc4)sc23)c(F)c1)N1CCN(c2ccccc2)C1=O	< 0.25	0.25 to 0.5	< 0.25	< 0.25	< 0.25	–	–	–	–
O=C(Nc1ccc(Oc2ccnc3cc(-c4cnn(C5CCNCC5)c4)sc23)c(F)c1)N1CCN(c2ccccc2)C1=O	< 0.25	> 1	0.25 to 0.5	< 0.25	< 0.25	–	–	–	–
CN(C)CC(=O)N1CC=C(c2cc3nccc(Oc4ccc(NC(=O)N5CCN(c6ccccc6)C5=O)cc4F)c3s2)CC1	< 0.25	< 0.25	< 0.25	< 0.25	< 0.25	–	–	–	–
CN(C)C(=O)c1ccc(-c2cc3nccc(Oc4ccc(NC(=O)N5CCN(c6ccccc6)C5=O)cc4F)c3s2)cc1	< 0.25	< 0.25	0.25 to 0.5	< 0.25	< 0.25	–	–	–	–
CN(C)CCOC(=O)N1CC=C(c2cc3nccc(Oc4ccc(NC(=O)N5CCN(c6ccccc6)C5=O)cc4F)c3s2)CC1	< 0.25	0.25 to 0.5	0.25 to 0.5	< 0.25	< 0.25	–	–	–	–
Cn1ccnc1-c1cc2nccc(Oc3ccc(NC(=O)c4cnn(-c5ccccc5)c4C(F)(F)F)cc3F)c2s1	> 1	–	> 1	–	–	–	> 1	–	–
Cc1c(C(=O)Nc2ccc(Oc3ccnc4cc(-c5cn(C)cn5)sc34)c(F)c2)cnn1-c1ccccc1	> 1	–	> 1	–	–	–	0.25 to 0.5	–	–
CN(C)C(=O)c1ccc(-c2cc3nccc(Oc4ccc(NC(=O)c5cnn(-c6ccccc6)c5C(F)(F)F)cc4F)c3s2)cc1	> 1	–	0.25 to 0.5	–	–	–	< 0.25	–	–
CS(=O)(=O)CCNCc1ccc(-c2cc3nccc(Oc4ccc(NC(=O)c5cnn(-c6ccccc6)c5C(F)(F)F)cc4F)c3s2)cc1	> 1	–	> 1	–	–	–	> 1	–	–
COCCNC(=O)c1ccc(-c2cc3nccc(Oc4ccc(NC(=O)c5cnn(-c6ccccc6)c5C(F)(F)F)cc4F)c3s2)nc1	> 1	–	> 1	–	–	–	> 1	–	–
CN(C)C(=O)c1ccc(-c2cc3nccc(Oc4ccc(NC(=O)c5cnn(-c6ccccc6)c5C(F)(F)F)cc4F)c3s2)nc1	> 1	–	0.25 to 0.5	–	–	–	0.25 to 0.5	–	–
Cn1cnc(-c2cc3nccc(Oc4ccc(NC(=O)c5cnn(C)c5C(F)(F)F)cc4F)c3s2)c1	0.5 to 1	> 1	> 1	–	< 0.25	–	–	–	–
CN(C)C(=O)c1ccc(-c2cc3nccc(Oc4ccc(NC(=O)c5cnn(-c6ccc(F)cc6)c5C(F)(F)F)cc4F)c3s2)cc1	> 1	> 1	> 1	–	< 0.25	–	–	–	–
Cn1cnc(-c2cc3nccc(Oc4ccc(NC(=O)c5cnn(-c6ccccc6)c5)cc4F)c3s2)c1 [drawing 192]	> 1	–	> 1	–	–	–	–	0.25 to 0.5	–
Cn1cnc(-c2cc3nccc(Oc4ccc(NC(=O)c5cnn(-c6ccccc6)c5)cc4F)c3s2)c1 [drawing 202]	0.5 to 1	–	–	–	–	–	–	> 1	> 1

Further lines, with some results ahead:

IC50 (VEGF receptor KDR; read-out: VEGFR IC50) [µM]	IC50 (A549; Homo sapiens, A549 cells) [µM]	IC50 (DU145; Homo sapiens, DU-145) [µM]	IC50 (c-Met) [µM]	IC50 [1] [µM]	IC50 (VEGF receptor KDR; read-out: VEGFR (IC50)) [µM]	SMILES	IC50 (A549; Homo sapiens, A549, A549 cells) [µM]	IC50 (A549; A549 cells) [µM]	IC50 (DU145) [µM]
< 0.25	0.25 to 0.5	0.25 to 0.5	< 0.25	< 0.25	–	COC[C@H](C)NCc1cccc(-c2cc3nccc(Oc4ccc(NC(=O)N5CCN(c6ccccc6)C5=O)cc4F)c3s2)c1	–	–	–
< 0.25	0.25 to 0.5	< 0.25	< 0.25	< 0.25	–	COCCNCc1cccc(-c2cc3nccc(Oc4ccc(NC(=O)N5CCN(c6ccccc6)C5=O)cc4F)c3s2)c1	–	–	–
< 0.25	< 0.25	< 0.25	< 0.25	< 0.25	–	COC[C@H](C)NCc1ccc(-c2cc3nccc(Oc4ccc(NC(=O)N5CCN(c6ccccc6)C5=O)cc4F)c3s2)cc1	–	–	–
< 0.25	> 1	> 1	> 1	0.25 to 0.5	–	O=C(NNC(=O)c1ccccc1)Nc1ccc(Oc2ccnc3cc(C4=CCNCC4)sc23)c(F)c1	–	–	–
0.25 to 0.5	> 1	> 1	0.5 to 1	–	–	O=C(Nc1ccc(Oc2ccnc3cc(-c4ccc(CNCC(F)(F)F)cc4)sc23)c(F)c1)N1CCN(c2ccccc2)C1=O	–	–	–
< 0.25	> 1	> 1	0.5 to 1	0.5 to 1	–	CCn1cnc(-c2cc3nccc(Oc4ccc(N(C)C(=O)N5CCN(c6ccccc6)C5=O)cc4F)c3s2)c1	–	–	–
0.25 to 0.5	–	–	< 0.25	0.25 to 0.5	–	CS(=O)(=O)c1ccc(-c2cc3nccc(Oc4ccc(NC(=O)N5CCN(c6ccccc6)C5=O)cc4F)c3s2)cc1	–	–	–
> 1	–	–	–	> 1	–	Cn1ccnc1-c1cc2nccc(Oc3ccc(NC(=O)c4ncc(-c5ccccc5)s4)cc3F)c2s1	–	–	–
> 1	0.25 to 0.5	> 1	0.5 to 1	< 0.25	–	Cn1cnc(-c2cc3nccc(Oc4ccc(NC(=O)c5cnn(-c6ccccc6)c5C(F)(F)F)cc4F)c3s2)c1	–	–	–
> 1	–	–	–	< 0.25	–	Cn1ccnc1-c1cc2nccc(Oc3ccc(NC(=O)c4ccc(-c5ccccc5)cc4F)cc3F)c2s1	–	–	–
< 0.25	0.25 to 0.5	0.25 to 0.5	0.25 to 0.5	< 0.25	–	C=CCN1CCN(C(=O)Nc2ccc(Oc3ccnc4cc(-c5cn(CC)cn5)sc34)c(F)c2)C1=O	–	–	–
> 1	0.25 to 0.5	> 1	< 0.25	0.25 to 0.5	–	COCCN(C)Cc1ccc(-c2cc3nccc(Oc4ccc(NC(=O)NNc5ccccc5)cc4F)c3s2)cc1	–	–	–
> 1	0.25 to 0.5	0.25 to 0.5	0.25 to 0.5	< 0.25	–	COCCNCc1ccc(-c2cc3nccc(Oc4ccc(NC(=O)c5cnn(-c6ccccc6)c5C(F)(F)F)cc4F)c3s2)nc1	–	–	–
> 1	> 1	> 1	–	> 1	–	CCOC(=O)c1ccc(-c2cc3nccc(Oc4ccc(NC(=O)c5cnn(-c6ccccc6)c5C(F)(F)F)cc4F)c3s2)cc1	–	–	–
> 1	0.25 to 0.5	> 1	–	< 0.25	–	COCCN(C)C(=O)c1ccc(-c2cc3nccc(Oc4ccc(NC(=O)c5cnn(-c6ccccc6)c5C(F)(F)F)cc4F)c3s2)nc1	–	–	–
> 1	< 0.25	0.25 to 0.5	–	< 0.25	–	CS(=O)(=O)c1ccc(-c2cc3nccc(Oc4ccc(NC(=O)c5cnn(-c6ccccc6)c5C(F)(F)F)cc4F)c3s2)nc1	–	–	–
–	–	–	–	–	< 0.25	Cn1cnc(-c2cc3nccc(Oc4ccc(NC(CC(=O)Nc5ccccc5)C(F)(F)F)cc4F)c3s2)c1 (centres unmarked) [Compound 8, 4,4,4-Trifluoro-3-(3-fluoro-4-(2-(1-methyl-1H-imidazol-4-yl)thieno[3,2-b]pyridin-7-yloxy)phenylamino)-N-phenylbutanamide]	–	–	–
–	–	–	–	–	< 0.25	Cn1cnc(-c2cc3nccc(Oc4ccc(NC(=O)CC(Nc5ccccc5)C(F)(F)F)cc4F)c3s2)c1 (centres unmarked) [Compound 12, 4,4,4-Trifluoro-N-(3-fluoro-4-(2-(1-methyl-1H-imidazol-4-yl)thieno[3,2-b]pyridin-7-yloxy)phenyl)-3-(phenylamino)butanamide]	–	–	–
